# Experimental data as given in patent US20230364196A1, “METHODS FOR TREATING GRAFT-VERSUS-HOST DISEASE USING GLP-2 AGONISTS AND ANALOGUES THEREOF” (THE TRUSTEES OF COLUMBIA UNIVERSITY IN THE CITY OF NEW YORK, priority 2021, published 2023).
# Entries after “also recorded” stand apart in the source; their conditions may differ.
# Columns and labels:
# Assay type in all cases: in vivo, mouse
# [1] = tested on: graft-versus-host disease in lethally-irradiated BALB/c mice transplanted from B6 mice; test: GVHD prevention after major MHC-mismatched allogeneic HSCT (2×10^6 splenic T-cells); conditions: 800 nmol/kg/d
# Source text: (§1) To determine the effect of elsiglutide treatment on graft-versus-host disease in MHC-mismatched (allogeneic) murine hematopoietic stem-cell transplantation and identify the optimal dosing schedule, in this experiment BALB/c mice were lethally-irradiated and transplanted with bone marrow (5×10^6 cells) from B6 mice plus 2×10^6 splenic T-cells and treated with 800 nmol/kg/d elsiglutide at 4 different treatment schedules (syngeneic transplant and allogeneic transplant with vehicle were used as controls).
# [2] = tested on: BALB/C mice, lethal TBI and allogeneic transplantation; test: Cage conditions experiment in allogeneic transplant (co-housed, separate, separate plus antibiotics); conditions: caged separately plus antibiotics D-2 to D+14; listed as GLP-2
# Source text: BALB/C mice underwent lethal TBI and allogeneic transplantation were assigned to 3 cage conditions to perturb their microbial composition: 1) vehicle and GLP-2 treated animals housed together, 2) treatment groups housed separately or 3) treatment groups housed separately and provided with neomycin and polymyxin-b in their drinking water from D-2 to D+14 post-transplant.
# We then assessed the role of microbial communities in the protective effect of GLP-2 by conducting an allogeneic transplant with 3 caging conditions; 1) vehicle and GLP-2 treated mice caged together, 2) caged separately, or 3) caged separately plus oral antibiotics.
# [3] = tested on: major MHC-mismatched GVHD model, BALB/c mice; test: GVHD prevention after allogeneic HSCT with lower T-cell dose (0.5×10^6 splenic T cells)
# Source text: as §1
# In a subsequent experiment, we used the same design as Example 3 but with T-cell depleted (TCD) bone marrow (BM) cells (5×10^6 cells) and a lower T-cell dose (0.5×10^6 splenic T cells) to allow examination of survival differences in a major MHC-mismatched GVHD model (aggressive GVHD model). As treatment effect was similar in this experiment for groups 3-4 and 5-6, these groups were combined into an “elsiglutide pre-transplant” group and an “elsiglutide post-transplant” group for presentation. In addition, animals originally designated to end treatment on D4 resumed treatment on D9 and continued until D30 or SAC. This time, the administration of elsiglutide beginning on D1 post-transplantation rescued 100% of mice from lethal GVHD along with improvement in GVHD scores and weight. […] Control mice (allogeneic transplant with vehicle control) had 100% mortality as expected and syngeneic control mice had 100% survival as expected (FIG. 10). This further supports the hypothesis that the timing of administration of the drug (post- vs. pre-radiation conditioning) is critical.
# [4] = tested on: healthy BALB/c mice; test: Escalating elsiglutide doses in healthy mice (no irradiation or transplant)
# Method: In this experiment elsiglutide at escalating doses (200-800 nmol/kg/d) was injected to healthy mice without irradiation or chemotherapy for 10 days.
# In this experiment we also performed Ki67 stains to document the proliferation of crypt cells in response to elsiglutide (FIG. 7). In healthy mice treated with vehicle Ki67 immunoreactivity was predominantly confined to the crypts where the stem cells reside.
# [5] = tested on: BALB/C mice, syngeneic transplant; test: Innate immune cells of the lamina propria after syngeneic transplant; conditions: for recovery of mature (P4) lamina propria macrophages: D+7, vs vehicle
# Source text: To assess the impact of GLP-2 on macrophage maturation in the absence of inflammatory GVHD, BALB/C mice were transplanted with T-cell depleted bone marrow from BALB/C donors and given daily S.C. injections of GLP-2 as mentioned above. […] P1-P4 macrophages were gated as CD45+CD19^−CD3-Ly6G^− and CD11b^+ or CD11c^+. Subsets of the “monocyte-waterfall” were gated as: P1: CD64^−/low Ly6C^+MHC II^− CX3CR1^−/low; P2: CD64^low/+Ly6C^+ MHC II^+ CX3CR1^−/low; P3: CD64^+ Ly6C^−MHC II^+ CX3CR1^−/low; P4: CD64^+Ly6C^−MHC II^+ CX3CR1^+. N=4 per treatment group.
# Daily subcutaneous injection of GLP-2 increases the relative abundance of lamina propria ILCs in a process that appears to target type-3 ILCs (ILC3s). ILC3s are important immunomodulators of the lamina propria and intestinal stem-cell (ISC) niche via their production of IL-22, playing a role in ISC maintenance. […] ILCs were gated as CD45^+ CD19^− CD3^− Ly6G^− CD11b^− CD11c^− CD127^+, with subsets being assigned based on Tbet (ILC1), GATA-3 (ILC2) and RORgt (ILC3) expression.
# [6] = tested on: intestinal microbiota; test: Intestinal microbiota by 16S rRNA sequencing of stool after lethal TBI and syngeneic transplantation
# Method: Mice undergoing lethal TBI were treated with daily S.C. injections with Elsiglutide (GLP-2) and their stool collected for 16s rRNA sequencing on D+0 (baseline), D+14 and D+28 post-transplant.
# To assess potential mechanisms for the differences in macrophage and T-cell phenotype, we examined the impact of GLP-2 on the intestinal microbiota. A syngeneic BALB/cJ model (similar to Example 1) was used to explore the effects of GLP-2 independent of GVHD. Stool samples from D+0, D+14, and D+28 were subjected to 16S rRNA sequencing. Vehicle-treated mice had distinct […] clusters at all time-points, showing a transplant effect on the microbiota (FIG. 28A). […] These taxa have been associated with anti-inflammatory properties and A. muciniphila abundance is linked to epithelial mucin production, which is increased by GLP-2.
# [7] = tested on: BALB/c syngeneic transplant recipients after high-dose lethal radiation; test: Syngeneic transplant after high-dose lethal radiation, different elsiglutide treatment schedules; conditions: for apoptotic bodies within the crypts (TUNEL stain): D4 after radiation
# Method: This experiment was carried out to determine the effect of daily elsiglutide administration (800 nmol/kg) on weight recovery and bowel weight in response to high dose radiotherapy using different treatment schedules. Syngeneic transplant was performed to rescue the animals from early death due to hematopoietic failure to be able to examine the mice at several time points. […] Treatment with elsiglutide increased small bowel mass after irradiation and syngeneic transplant. The longer the treatment the more pronounced the effect.
# TUNEL stain was then performed to assess apoptosis of intestinal epithelial cells on D4 after radiation. We observed a small number of apoptotic bodies within the crypts of all mice at D4 post irradiation and transplantation (FIG. 4).
# [8] = tested on: major MHC mismatched allogeneic transplant mice; test: Mechanistic study in major MHC-mismatched allogeneic transplant (flow cytometry/histology of organs, serum cytokines); conditions: for proportion of Th1 and CD8+ T-cells expressing T-bet (intraepithelial, small intestine): 800 nmol/kg daily subcutaneous; for engraftment of hematopoietic stem cells / donor cells in the spleen: post-transplant elsiglutide vs vehicle, D7
# Source text: BALB/C mice underwent lethal TBI. (850 cGy Cs137) and transplantation with 5×10^6 T-cell depleted bone marrow cells and 1×10^6 splenic T-cells from B6 donors (major MHC-mismatch model).
# To further explore the mechanism behind the treatment effect observed in Example 4, we used the same experimental design as Example 4. […]
# [9] = D+21 post-transplant, listed as Elsiglutide
# [10] = post-transplant elsiglutide, allogeneic transplant
substance,measurement,setting,value
elsiglutide,small bowel weight and length,"[1]; 4 treatment schedules, p<0.0001, not dependent on schedule",increase
same,GVHD outcome,"[1]; 2×10^6 T-cell dose, all mice except 1 from −D3-D4 group, euthanized by D8",developed severe GvHD by D6
same,effect of oral antibiotics (neomycin and polymyxin-b) on the survival benefit of treatment,[2],dampened the beneficial effect; also recorded: reduced the efficacy
same,GVHD scores and weight,[3]; elsiglutide beginning on D1 post-transplantation,improvement
same,mice rescued from lethal GVHD,"[3]; elsiglutide beginning on D1 post-transplantation, through day 35",100%
same,mice surviving long term,"[3]; post-transplant elsiglutide group, after discontinuation of treatment (day 30)",50%
same,GVHD scores and weight in surviving mice,[3]; pre-transplant elsiglutide,still had an effect
same,mice rescued from death,"[3]; pre-transplant elsiglutide, through day 35",40%
same,"Ki67 staining, difference between doses",[4]; 200-800 nmol/kg/d,no obvious difference
same,total body weight over baseline,"[4]; 200-800 nmol/kg/d for 10 days, unirradiated",enhanced; also recorded: dose-dependent weight increase
same,weight of small and large bowel,"[4]; 200-800 nmol/kg/d, by day 10",enhanced; also recorded: dose-dependent increase
same,Ki67 proliferation staining of crypt cells,[4]; vs vehicle-treated healthy mice,extended further out of the crypts into the villi
same,ILC3,[5],significant increase
same,recovery of mature (P4) lamina propria macrophages,[5],improved recovery
same,recovery of mature (P4) lamina propria macrophages,[5]; listed as GLP-2,increased shift
same,recovery / relative abundance of lamina propria ILCs,[5]; D+14,improved
same,recovery / relative abundance of lamina propria ILCs,"[5]; D+14, listed as GLP-2",increases
same,abundance of Bacteroidales S24-7 family,[6]; D+14 and D+28,significantly enriched
same,abundance of Akkermansia muciniphila,"[6]; D+14 and D+28, listed as GLP-2",significantly enriched; also recorded: increased
same,β-diversity of stool microbiota by D+28,[6]; continual treatment,shifts in β-diversity
same,"β-diversity clusters of stool microbiota, D+0 vs D+14","[6]; daily S.C. injections, listed as GLP-2",near-complete cluster overlap; also recorded: overlap between D+0 and D+14 samples
same,weight recovery after high dose radiotherapy,"[7]; 800 nmol/kg daily, several treatment schedules",without a clear effect
same,weight recovery after radiation,"[7]; 800 nmol/kg daily, treatment start on D-3",slightly worse than other schedules
same,small bowel mass after irradiation and syngeneic transplant,"[7]; 800 nmol/kg daily, longer treatment more pronounced",increased
same,apoptotic bodies within the crypts (TUNEL stain),"[7]; pre-transplant treated animals (D-7), vs vehicle",increased abundance of apoptotic bodies
same,apoptotic bodies within the crypts (TUNEL stain),[7]; treatment D-7 to D-3 then resumed on D1,very few apoptotic bodies
same,apoptotic bodies within the crypts (TUNEL stain),[7]; treatment beginning D1 post-transplant,almost no apoptotic bodies
same,"villi length and crypt depth (histology, distal small bowel)","[7]; after radiation, longer courses most pronounced",enhanced
same,"proportion of Th1 and CD8+ T-cells expressing T-bet (intraepithelial, small intestine)",[8],lower proportion
same,"proportion of Th1 and CD8+ T-cells expressing T-bet (intraepithelial, small intestine)",[8]; listed as Elsiglutide,reduced
same,interferon gamma in the serum,"[8]; D+21 after transplant, vs vehicle",lower levels
same,co-stimulatory molecules and SIRPα on lamina propria macrophages,[8]; D+21 post-transplant,reduced expression of co-stimulatory molecules and increased SIRPα
same,"lamina propria macrophages with tolerogenic/mature phenotype (higher CX3CR1, SIRP-alpha; lower CD80, CD86, CD206)",[8]; D+21 post-transplant,increase
same,Ly6C^high MHC-II^low immature macrophages,[8]; [9],decrease; also recorded: significant reduction
same,"lamina propria macrophages with tolerogenic/mature phenotype (higher CX3CR1, SIRP-alpha; lower CD80, CD86, CD206)",[8]; [9],increased prevalence
same,recovery of innate lymphoid cell (ILC) subtypes in lamina propria,"[8]; allogeneic setting, D+14 post-transplant",did not enhance recovery of any ILC subtype
same,T-cell activation,[8]; day 7 after transplant,reduced
same,engraftment of hematopoietic stem cells / donor cells in the spleen,[8],did not impair
same,engraftment of hematopoietic stem cells / donor cells in the spleen,[8]; listed as elsigltide,comparable engraftment
same,body weight loss,[8]; [10],absence of weight loss
same,small bowel mass and length,[8]; [10],increase
same,"lung inflammation, macroscopic assessment (1×)",[8]; vs allogeneic transplant mice with vehicle,fewer areas of inflammation and healthier appearing lung tissue
same,CD44 expression on gut T-cells,[8]; vs vehicle,higher
same,expression of adhesion molecules on gut lamina propria T-cells (CD103 on CD4 T-cells),[8]; vs vehicle,decreased; also recorded: lower
same,lung infiltrates and alveolar wall thickening (20×),[8]; vs vehicle,decreased infiltration and less alveolar wall thickening
same,CD3+ T-cell infiltration in colon and small bowel (immunohistochemistry),[8]; vs vehicle treated mice,decreased T-cell infiltration with more focal and less diffuse pattern of infiltration and fewer intraepithelial T-cells
same,"T-EMRA cells in CD4 and CD8 T-cells, IEL and LPL",[8]; vs vehicle-treated mice,fewer
same,alveolar diameter and alveolar wall thickness,[8]; vs vehicle-treated mice,decreased inflammation and alveolar damage
same,inflammation in the liver portal triads,"[8]; vs vehicle-treated mice, 20× magnification",decreased inflammation
